Measured values from patent US4544660A, “Pharmaceutically active tropanes” (Beecham Group p.l.c., priority 1978, dated 1985).
Like-named read-outs stand apart in the source and are kept apart here.

Legend:
Dopamine Receptor [1] = assay: Inhibition of apomorphine induced stereotype behaviour in the rat; assay type: in vivo; parameters: key to I(a) Dose Inhibiting Stereotype Behaviour (slight inhibition, footnote *): *: slight at 0.05; key to I(a) Dose Inhibiting Stereotype Behaviour (slight inhibition, footnote +): +: slight at 1; details: s.c.; for I(a) Dose Inhibiting Stereotype Behaviour (dose for complete inhibition): apomorphine induced, IA(x) = inactive at dose in brackets
Text: (§1) I. Dopamine Receptor Blocking Activity in the Central Nervous System
(a) Inhibition of apomorphine induced stereotype behaviour in the rat
(method of Ernst (1967), Psychopharmacologia (Berl.) 10 316-323).

vomiting response = assay: Anti-emetic activity in the dog (apomorphine induced vomiting); assay type: in vivo; parameters: key to II Anti-Emetic Activity Dose, slight activity (footnote *): *: slight at 5 × 10^-4; details: s.c.; for ED100: Canis lupus familiaris, 30 min before apomorphine HCl 0.1 mg/kg s.c., complete inhibition, read-out: II Anti-Emetic Activity Dose, Complete Inhibition
Description: II. Anti-emetic activity in the dog
Compounds were administered subcutaneously 30 minutes prior to administration of a standard dose of apomorphine HCl (0.1 mg/kg subcutaneously) and the vomiting response compared to that obtained when the same animals were dosed with apomorphine HCl and vehicle only.

gastric emptying = assay: Increase in gastric emptying: reversal of apomorphine induced delay in gastric emptying in the rat; assay type: in vivo; details: for III(b) Increase in Gastric Emptying: 10 mg/kg s.c., apomorphine HCl 5 mg/kg s.c. induced delay
Description: (b) Increase in gastric emptying: reversal of apomorphine induced delay in gastric emptying in the rat
Rats equipped with chromic gastric fistulae were used and it was through this that 5 ml of a test meal (5 ml phosphate buffer at pH 9) was administered and recovered. The % recovery of the standard meal after remaining in the stomach for 10 minutes was taken as an index of gastric emptying. Delay in gastric emptying was induced by the administration of apomorphine HCl (5 mg/kg subcutaneously) which was given 15 minutes prior to the subcutaneous administration of the compound. The % recoveries of the test meal were determined at 15-25 and 45-55 minutes post-dosing with the compound and compared with vehicle only dosed animals set up simultaneously. Six animals were used for each group.

Dopamine Receptor [2] = assay: Inhibition of apomorphine induced climbing in the mouse; assay type: in vivo; details: p.o., apomorphine 1 mg/kg s.c.
Description: as §1
(b) Inhibition of apomorphine induced climbing in the mouse
The test is based on that described by Protais, P., Constantin, J. and Schwartz J.C. (1976), Psychopharmacology, 50, 1-6.
Apomorphine 1 mg/kg s.c. induces mice to climb the wall of a wire cage (inverted food hopper--11×7.5×18 cm high). Mice acclimatised in their home cages in groups of 5 are placed under the hoppers immediately after the injection of apomorphine 1 mg/kg s.c. At 10,20 and 30 minutes after injection climbing behaviour is scored. The mice are observed for 30 seconds and scored according to the position they spend the majority of time in, score 0--four paws on floor of cage; score 1--fore paws only on walls; score 2--all paws on wall of cage. The scores at all 3 times and for each mouse are summed and mice drug treated orally compared to mice receiving apomorphine only. A saline only treated group is also included and any score, generally <5% of maximum taken into account.

[3] = Anti-obesity activity (single compound test); assay type: in vivo
intragastric pressure = assay: Increase in intragastric pressure in the rat; assay type: in vivo; parameters: III(a) Increase in Intragastric Pressure Dose (minimum dose for activity): unit not given here; details: s.c., 40 minute period after administration
Description: (a) Increase in intragastric pressure in the rat
Intragastric pressure changes were recorded from previously starved conscious but restrained rats using a saline filled catheter inserted into the lumen of the stomach via a permanent gastric fistula. The catheter was connected to a physiological pressure transducer and pressure changes recorded on a hot wire pen recorder. In each animal a pre-dose period of 40 minutes was allowed to obtain a measure of spontaneous activity. An index of activity was obtained by measuring the average height of pressure waves during 10 minute periods. Values for 4 such periods were obtained during assessment of spontaneous activity and for the 40 minute period after the subcutaneous administration of the compounds. Students `t` test was applied to the difference in average values obtained for spontaneous and post-compound activity.

dopamine receptor [4] = target: T1, dopamine receptor (Rattus norvegicus, UniProt P61169); assay: In vitro displacement of radiolabelled spiroperidol from dopamine receptor membranes; assay type: binding, rat (Male Hooded Lister); details: for inhibition at 10 µM: 0.25 h, 10^-5 M compound, read-out: I(c) Spiroperidol Displacement % at 10^-5 M
T1 construct: the caudate nucleus is quickly dissected out; from tissue; host or cells: caudate nucleus of male Hooded Lister rats, homogenate
T1 sequence (P61169 whole entry): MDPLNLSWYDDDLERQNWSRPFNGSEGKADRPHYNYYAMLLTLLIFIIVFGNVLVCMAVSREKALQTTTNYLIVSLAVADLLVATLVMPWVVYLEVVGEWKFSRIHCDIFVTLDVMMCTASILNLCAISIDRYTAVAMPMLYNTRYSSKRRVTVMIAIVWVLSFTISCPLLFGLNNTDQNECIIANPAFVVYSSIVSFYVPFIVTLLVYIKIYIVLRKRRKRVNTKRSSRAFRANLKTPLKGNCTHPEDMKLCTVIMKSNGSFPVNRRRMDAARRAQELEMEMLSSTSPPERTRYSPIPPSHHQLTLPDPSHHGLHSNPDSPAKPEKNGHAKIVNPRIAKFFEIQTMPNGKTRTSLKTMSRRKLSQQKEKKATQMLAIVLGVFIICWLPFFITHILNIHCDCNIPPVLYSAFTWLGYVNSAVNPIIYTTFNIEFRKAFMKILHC
Description: (c) In vitro displacement of radiolabelled spiroperidol from dopamine receptor membranes
Therefore a compound which displaces this ligand from dopamine receptor membranes may have neuroleptic properties.
Male Hooded Lister rats (200-300 g) are decapitated and the caudate nucleus is quickly dissected out. This is homogenised in ice cold Tris buffer (pH 7.7 at 25° C.) at a concentration of 10 mg/ml wet weight of tissue. The test compound (at 10^-5 M) or spiroperidol (standard curve from 10^-5 to 10^-9 M) is added to the assay tubes followed by 0.5 nM [^3 H]-spiroperidol. This is mixed with 500 μl of the membrane preparation and the assay tubes are incubated for 15 minutes at 37° C. After this period 4 ml ice cold Tris buffer is added to each tube and the solutions are filtered through per-soaked glass fibre filters. The filter is washed twice with 4 ml of the buffer and then transferred to a scintillation vial for counting. Single concentration results are given as a percentage of [^3 H]-spiroperidol displaced.

[5] = Anti-arrhythmic activity (single compound test)
dopamine receptor [6] = target: T1, dopamine receptor; details: literature; cited from earlier work
[7] = 0.5 nM [3H]-spiroperidol, rat caudate nucleus membranes
[8] = 0.5 nM [3H]-spiroperidol, rat caudate nucleus membranes, read-out: I(c) Spiroperidol Displacement ED50 (concentration for 50% displacement)

COc1cc(N)c(Cl)cc1C(=O)N[C@@H]1C[C@H]2CC[C@@H](C1)N2Cc1ccccc1 [Compound 5, 4-amino-5-chloro-2-methoxy-N-(3'β-[8'-benzyl]8-azabicyclo[3.2.1]octyl)benzamide]
I(a) Dose Inhibiting Stereotype Behaviour (dose for complete inhibition) (Dopamine Receptor [1]): 0.05 mg/kg
ED100 (vomiting response): 0.001 mg/kg
minimal effective dose (gastric emptying; sc, read-out: dose that significantly increases gastric emptying): 0.05 mg/kg
I(b) Anti-Climbing Activity Dose, ED50 (Dopamine Receptor [2]): 0.03 mg/kg
anti-obesity activity [3]: anti-obesity activity

COc1cc(N)c(Cl)cc1C(=O)N[C@@H]1C[C@H]2CCC[C@@H](C1)N2Cc1ccccc1 [Compound 12, 4-amino-5-chloro-2-methoxy-N-(3'β-[9'-benzyl-9'-azabicyclo-[3.3.1]-nonyl])-benzamide]
I(a) Dose Inhibiting Stereotype Behaviour (dose for complete inhibition) (Dopamine Receptor [1]): 0.5 mg/kg
III(a) Increase in Intragastric Pressure Dose (minimum dose for activity) (intragastric pressure): IA(1)
ED100 (vomiting response): 0.1 mg/kg
I(b) Anti-Climbing Activity Dose, Complete Inhibition (Dopamine Receptor [2]): 2 mg/kg
inhibition at 10 µM (dopamine receptor [4]; [7]): 53%

COc1cc(N)c(Cl)cc1C(=O)N[C@@H]1C[C@H]2CC[C@@H](C1)N2Cc1ccc(C)cc1 [Compound 13, 4amino-5chloro-2-methoxy-N-(3β-[8'[4"methylbenzyl]-8'-azabicyclo[3.2.1]octyl])-benzamide]
ED100 (vomiting response): 0.1 mg/kg
I(b) Anti-Climbing Activity Dose, ED50 (Dopamine Receptor [2]): 0.12 mg/kg
inhibition at 10 µM (dopamine receptor [4]; [7]): 54%

COc1cc(N)c(Cl)cc1C(=O)N[C@@H]1C[C@H]2CC[C@@H](C1)N2CCc1ccccc1 [Compound 18, 4amino-5-chloro-2-methoxy-N-(3β-[8'-β-phenethyl]-['-azabicyclo[3.2.1]octyl])-benzamide]
I(a) Dose Inhibiting Stereotype Behaviour (dose for complete inhibition) (Dopamine Receptor [1]): IA(50)
III(a) Increase in Intragastric Pressure Dose (minimum dose for activity) (intragastric pressure): IA(5)
ED100 (vomiting response): 0.25 mg/kg
I(b) Anti-Climbing Activity Dose, Complete Inhibition (Dopamine Receptor [2]): IA (inactive at 10 mg/Kg p.o.)
IC50 (dopamine receptor [4]; [8]): 0.6 µM

COc1cc(N)c(Cl)cc1C(=O)N[C@@H]1C[C@H]2CC[C@@H](C1)N2C [Compound 19, 4-Amino-5-chloro-2-methoxy-N-(3'β-[8'-methy-8'-azabicyclo[3.2.1]-octyl])-benzamide]
I(a) Dose Inhibiting Stereotype Behaviour (dose for complete inhibition) (Dopamine Receptor [1]): IA(25)
minimal effective dose (intragastric pressure; sc, 40 min, read-out: III(a) Increase in Intragastric Pressure Dose (minimum dose for activity)): 1 to 10 mg/kg
ED100 (vomiting response): 0.6 mg/kg
III(b) Increase in Gastric Emptying (gastric emptying): 25%
I(b) Anti-Climbing Activity Dose, Complete Inhibition (Dopamine Receptor [2]): IA (inactive at 10 mg/Kg p.o.)
inhibition at 10 µM (dopamine receptor [4]; [7]): 64%

COc1cc(N)c(Cl)cc1C(=O)N[C@H]1C[C@H]2CC[C@@H](C1)N2C [Compound 20, 4-amino-5-chloro-2-methoxy-N-(3'α-[8'-methyl-8'-azabicyclo[3.2.1]-octyl])-benzamide]
anti-arrhythmic activity [5]: anti-arrhythmic activity

CCCCN1[C@@H]2CC[C@H]1C[C@H](NC(=O)c1cc(Cl)c(N)cc1OC)C2 [Compound 26, 4-amino-5-chloro-2-methoxy-N-(3'β-[8'-n-butyl-8'-azabicyclo[3.2.1]-octyl])benzamide]
I(a) Dose Inhibiting Stereotype Behaviour (slight inhibition, footnote +) (Dopamine Receptor [1]; slight at 1): +
ED100 (vomiting response): 0.4 mg/kg
III(b) Increase in Gastric Emptying (gastric emptying): 1%
I(b) Anti-Climbing Activity Dose, ED50 (Dopamine Receptor [2]): 2.9 mg/kg
IC50 (dopamine receptor [4]; [8]): 0.4 µM

CCCCN1[C@@H]2CC[C@H]1C[C@@H](NC(=O)c1cc(Cl)c(N)cc1OC)C2 [Compound 27, 4-amino-5-chloro-2-methoxy-N-(3'α-[8'-n-butyl-8'-azabicyclo[3.2.1]-octyl])benzamide]
I(a) Dose Inhibiting Stereotype Behaviour (dose for complete inhibition) (Dopamine Receptor [1]): IA(10)
III(a) Increase in Intragastric Pressure Dose (minimum dose for activity) (intragastric pressure): IA(10)
ED100 (vomiting response): 1 mg/kg
III(b) Increase in Gastric Emptying (gastric emptying): IA(10)
I(b) Anti-Climbing Activity Dose, Complete Inhibition (Dopamine Receptor [2]): IA (inactive at 10 mg/Kg p.o.)
inhibition at 10 µM (dopamine receptor [4]; [7]): 66%

COc1cc(N)c(Cl)cc1C(=O)N[C@@H]1C[C@H]2CC[C@@H](C1)N2CC1CCCCC1 [Compound 30, 4-amino-5-chloro-2-methoxy-N-(3'β-[8'-cyclohexylmethyl-8'-azabicyclo-[3.2.1]-octyl])-benzamide]
I(a) Dose Inhibiting Stereotype Behaviour (slight inhibition, footnote *) (Dopamine Receptor [1]; slight at 0.05): *
III(a) Increase in Intragastric Pressure Dose (minimum dose for activity) (intragastric pressure): IA(1)
II Anti-Emetic Activity Dose, slight activity (footnote *) (vomiting response; slight at 5 × 10^-4): *
III(b) Increase in Gastric Emptying (gastric emptying): 0.05%
I(b) Anti-Climbing Activity Dose, Complete Inhibition (Dopamine Receptor [2]): 5 mg/kg
IC50 (dopamine receptor [4]): 0.02 µM

O=C(CCCN1CCC2(CC1)C(=O)NCN2c1ccccc1)c1ccc(F)cc1 [[3H]-spiroperidol]
binding to dopamine receptors in the brain (dopamine receptor [6]): high affinity
